The source of these data is patent US5641792A, “Benzoylguanidines substituted by heterocyclic N-oxide, process for their preparation and pharmaceutical compositions containing them” (priority 1994, dated 1997).

One may read the IC50 as the concentration that gives 50% inhibition.

Structures are written as SMILES. Counter-ions that a name gives are not always drawn.

Data set [1] deals with T1, Na^+ /H^+ exchanger of rabbit erythrocytes (Oryctolagus cuniculus, UniProt P23791).
T1 construct: determine the Na^+ influx into the erythrocytes via Na^+ /H^+ exchange by flame photometry; endogenous in cells; host or cells: erythrocytes in blood from the ear arteries of cholesterol-fed White New Zealand rabbits (Ivanovas)
T1 sequence (P23791 whole entry): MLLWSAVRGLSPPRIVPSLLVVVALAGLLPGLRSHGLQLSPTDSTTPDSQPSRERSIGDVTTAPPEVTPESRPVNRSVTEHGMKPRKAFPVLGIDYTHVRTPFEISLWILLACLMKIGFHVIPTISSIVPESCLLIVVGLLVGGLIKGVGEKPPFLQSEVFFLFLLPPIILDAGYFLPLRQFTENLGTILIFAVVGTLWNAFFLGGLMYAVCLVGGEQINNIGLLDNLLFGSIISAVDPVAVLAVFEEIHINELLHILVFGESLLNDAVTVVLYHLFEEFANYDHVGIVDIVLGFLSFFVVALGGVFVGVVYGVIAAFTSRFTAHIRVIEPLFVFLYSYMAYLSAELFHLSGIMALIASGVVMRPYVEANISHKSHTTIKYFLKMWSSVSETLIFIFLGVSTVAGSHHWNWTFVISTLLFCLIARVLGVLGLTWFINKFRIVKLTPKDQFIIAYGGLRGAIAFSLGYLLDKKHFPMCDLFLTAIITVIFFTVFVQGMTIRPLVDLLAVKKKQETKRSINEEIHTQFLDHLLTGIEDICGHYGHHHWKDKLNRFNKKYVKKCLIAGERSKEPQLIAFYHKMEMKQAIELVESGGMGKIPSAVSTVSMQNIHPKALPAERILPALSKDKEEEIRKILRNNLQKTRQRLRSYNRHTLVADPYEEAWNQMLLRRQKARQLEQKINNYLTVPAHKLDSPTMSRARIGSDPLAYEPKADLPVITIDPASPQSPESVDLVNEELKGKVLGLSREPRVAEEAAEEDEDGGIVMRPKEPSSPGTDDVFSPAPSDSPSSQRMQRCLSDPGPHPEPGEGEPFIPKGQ
Description: Inhibition of the Na^+ /H^+ Exchanger of Rabbit Erythrocytes (amiloride-sensitive Na^+ influx, flame photometry). Type of data set: cell-based, rabbit (White New Zealand). Particulars: cholesterol-fed rabbits, pH 7.4, 37° C. The source says:
Inhibition of the Na^+ /H^+ Exchanger of Rabbit Erythrocytes
White New Zealand rabbits (Ivanovas) were given a standard diet with 2% of cholesterol for six weeks in order to activate the Na^+ /H^+ exchange and in this way to be able to determine the Na^+ influx into the erythrocytes via Na^+ /H^+ exchange by flame photometry. The blood was removed from the ear arteries and rendered noncoagulable by 25 IU of potassium-heparin. A portion of each sample was used for duplicate determination of the hematocrit by centrifugation. Aliquots of in each case 100 μl were used for measurement of the starting Na^+ content of the erythrocytes.
To determine the amiloride-sensitive sodium influx, 100 μl of each blood sample were incubated in 5 ml portions each of a hyperosmolar salt/sucrose medium (mmol/l: 140 NaCl, 3 KCl, 150 sucrose, 0.1 ouabain, 20 tris-hydroxymethylaminomethane) at pH 7.4 and 37° C. The erythrocytes were then washed three times with ice-cold MgCl2 /ouabain solution (mmol/l: 112 MgCl2, 0.1 ouabain) and hemolyzed in 2.0 ml of distilled water. The intracellular sodium content was determined by flame photometry.
The Na^+ net influx was calculated from the difference between the starting sodium values and the sodium content of the erythrocytes after incubation. The sodium influx which can be inhibited by amiloride resulted from the difference between the sodium content of the erythrocytes after incubation with and without 3×10^-4 mol/l of amiloride. This procedure was also followed with compounds according to the invention.

The test system of data set [2] is rat hearts. The following applies: isolated rat hearts, cited from earlier work.
The conditions of data set [3]: cited from earlier work.

For `Cc1ccc2cc(Oc3ccc(C(=O)N=C(N)N)cc3S(C)(=O)=O)ccc2[n+]1[O-]` [Example 2, 4-(quinaldine N-oxide-6-yloxy)-3-methylsulfonyl-benzoylguanidine, hydrochloride], in data set [1], half-maximal inhibition (IC50) required 0.3 µM. `Cc1ccc2cc(Oc3ccc(C(=O)N=C(N)N)cc3C(F)(F)F)ccc2[n+]1[O-]` [Example 3, 4-(quinaldine N-oxide-6-yloxy)-3-trifluoromethyl-benzoylguanidine, hydrochloride] returned an IC50 in data set [1] of 0.019 µM.

Regarding `CCN(c1nc(N)c(C(=O)NC(=N)N)nc1Cl)C(C)C` [ethylisopropylamiloride], the “potency relative to amiloride in this model (ventricular fibrillation)” value in data set [2] (compared with amiloride) is “even more potent than amiloride”. The compound `NC(N)=NC(=O)c1ccc(Oc2ccc[n+]([O-])c2)c(C(F)(F)F)c1` [Example 1, 4-(pyridine N-oxide-3-yloxy)-3-trifluoromethyl-benzoylguanidine, hydrochloride] had an IC50 in data set [1] of 0.08 µM. As to `NC(N)=NC(=O)c1nc(Cl)c(N)nc1N` [amiloride, Amiloride], in data set [2] (Eur. Heart J. 9 (suppl. 1): 167 (1988)), the “suppression of artificially induced ventricular fibrillation” value is listed as “suppressed completely”. The antiarrhythmic effect entry in data set [3] (Circulation 79, 1257-63 (1989)) is “only weak”. Further, the “accompanying action (side-effects)” value in data set [3] (accompanies the antiarrhythmic effect) is “antihypertensive and saluretic action”.
